In the NIST ThermoML archive (doi:10.1007/s10765-012-1370-2):

Experiment: xn = mol fraction of the nth substance listed
Settings: Liquid, Bellows volumetry

CCC [propane] + O=C=O
mass density [kg/m3]
Settings	280 K	320 K	360 K	400 K	440 K
3000 kPa, x2 = 0.1744	556.31	–	–	–	–
5000 kPa, x2 = 0.1744	561.89	482.68	–	–	–
10000 kPa, x2 = 0.1744	573.48	508.23	419.87	–	–
10000 kPa, x2 = 0.3863	620.48	530.48	–	–	–
10000 kPa, x2 = 0.5837	680.55	547.46	–	–	–
10000 kPa, x2 = 0.7732	763.91	–	–	–	–
20000 kPa, x2 = 0.1744	592.16	539.43	481.41	–	–
20000 kPa, x2 = 0.3863	644.94	577.9	501.31	416.94	–
20000 kPa, x2 = 0.5837	713.25	623.7	518.21	–	–
20000 kPa, x2 = 0.7732	807.46	683.7	532.45	–	–
30000 kPa, x2 = 0.1744	606.51	560.67	513.49	463.97	–
30000 kPa, x2 = 0.3863	663.74	606.46	546.54	484.73	425.58
30000 kPa, x2 = 0.5837	737.38	663.4	584.42	504.63	–
30000 kPa, x2 = 0.7732	837.33	738.49	631.46	526.28	–
40000 kPa, x2 = 0.1744	619.31	577.4	535.86	493.75	453.4
40000 kPa, x2 = 0.3863	678.81	628.01	576.34	524.65	475.39
40000 kPa, x2 = 0.5837	756.53	691.1	624.74	558.9	498.14
40000 kPa, x2 = 0.7732	861.06	775.23	686.69	600.44	524.14
50000 kPa, x2 = 0.1744	629.89	591.36	553.69	515.97	480.3
50000 kPa, x2 = 0.3863	691.83	645.47	599.05	553.29	510.05
50000 kPa, x2 = 0.5837	772.63	713.18	654.15	596.39	543.19
50000 kPa, x2 = 0.7732	880.32	803.46	725.46	650.25	582.81
60000 kPa, x2 = 0.1744	639.83	603.47	568.6	533.68	501.53
60000 kPa, x2 = 0.3863	703.48	660.15	617.66	575.8	536.68
60000 kPa, x2 = 0.5837	786.68	731.74	677.69	625.2	577.1
60000 kPa, x2 = 0.7732	897.67	826.73	755.67	687.92	626.71
70000 kPa, x2 = 0.1744	648.12	613.78	581.28	548.87	518.95
70000 kPa, x2 = 0.3863	713.93	673.05	633.44	594.51	558.53
70000 kPa, x2 = 0.5837	799.31	747.63	697.37	648.89	604.68
70000 kPa, x2 = 0.7732	912.73	846.24	780.83	718.31	661.78
80000 kPa, x2 = 0.1744	656.23	623.2	592.36	561.96	533.91
80000 kPa, x2 = 0.3863	723.24	684.45	647.34	610.56	576.94
80000 kPa, x2 = 0.5837	810.6	761.45	714.31	668.81	627.72
80000 kPa, x2 = 0.7732	927.24	863.57	802.2	743.76	690.97
90000 kPa, x2 = 0.1744	663.51	631.77	602.5	573.37	546.96
90000 kPa, x2 = 0.3863	732.5	694.88	659.51	624.68	592.95
90000 kPa, x2 = 0.5837	821.14	773.99	729.21	686.29	647.49
90000 kPa, x2 = 0.7732	939.34	879.25	821	765.81	715.85
100000 kPa, x2 = 0.1744	670.12	639.8	611.43	583.87	558.7
100000 kPa, x2 = 0.3863	740.27	704.18	670.54	637.16	607.11
100000 kPa, x2 = 0.5837	830.57	785.61	742.72	701.68	664.74
100000 kPa, x2 = 0.7732	951.22	893.05	837.52	785.16	737.47
120000 kPa, x2 = 0.1744	682.47	654.22	627.94	601.92	578.72
120000 kPa, x2 = 0.3863	754.61	721.25	690.06	658.95	631.24
120000 kPa, x2 = 0.5837	847.84	806	766.21	728.37	694.36
120000 kPa, x2 = 0.7732	971.86	917.78	866.62	818.25	774.63
140000 kPa, x2 = 0.1744	693.54	666.67	642.06	617.62	595.88
140000 kPa, x2 = 0.3863	767.28	735.96	706.76	677.58	651.66
140000 kPa, x2 = 0.5837	862.96	824.18	786.28	750.66	719.21
140000 kPa, x2 = 0.7732	989.75	939.18	891.18	845.81	805.33
160000 kPa, x2 = 0.1744	703.41	678.11	654.39	631.49	610.94
160000 kPa, x2 = 0.3863	779.18	749.2	721.47	693.82	669.67
160000 kPa, x2 = 0.5837	876.77	839.79	803.84	770.18	740.68
160000 kPa, x2 = 0.7732	1006.14	958.02	912.47	869.72	831.52
180000 kPa, x2 = 0.1744	712.71	688.17	665.89	643.58	624.2
180000 kPa, x2 = 0.3863	789.73	761.05	734.92	708.41	685.33
180000 kPa, x2 = 0.5837	889	853.99	819.85	787.61	759.39
180000 kPa, x2 = 0.7732	1020.76	975.24	931.8	890.88	854.41
200000 kPa, x2 = 0.1744	720.96	697.95	676.04	654.96	636.19
200000 kPa, x2 = 0.3863	799.56	772.24	746.96	721.61	699.19
200000 kPa, x2 = 0.5837	900.92	866.84	833.79	803.17	776.34
200000 kPa, x2 = 0.7732	1034.57	990.64	948.91	909.94	875.02
